ChEMBL document CHEMBL4715748, “Synthesis and biological investigation of new equatorial (β) stereoisomers of 3-aminotropane arylamides with atypical antipsychotic profile” (Bioorg Med Chem, 2016)

Key:
[1] = Effect on 8-OH-DPAT-induced lower lip retraction in Wistar rat at 0.1 mg/kg, sc pretreated with compound for 45 mins followed by 8-OH-DPAT challenge and measured after 15 mins (reference value: 2.7 to 2.8); format: functional; conditions: time 60 min, 1 h
[2] = Effect on 8-OH-DPAT-induced lower lip retraction in Wistar rat at 0.2 mg/kg, sc pretreated with compound for 15 mins followed by 8-OH-DPAT challenge and measured after 15 mins (reference value: 2.7 to 2.8); conditions: time 30 min, 0.5 h
Mus musculus [3] = assay: Inhibition of 8-OH-DPAT-induced hypothermia in Swiss albino mouse assessed as change in rectal body temperature at 0.3 mg/kg, sc pretreated with compound for 45 mins followed by 8-OH-DPAT challenge and measured after 45 min by thermometer (reference value: -1.3 degreeC); format: functional, organism-based; conditions: time 90.0 min
Mus musculus [4] = assay: Inhibition of 8-OH-DPAT-induced hypothermia in Swiss albino mouse assessed as change in rectal body temperature at 0.3 mg/kg, sc pretreated with compound for 45 mins followed by 8-OH-DPAT challenge and measured after 60 min by thermometer (reference value: -1.3 degreeC); format: functional, organism-based; conditions: time 105.0 min
Mus musculus [5] = assay: Inhibition of 8-OH-DPAT-induced hypothermia in Swiss albino mouse assessed as change in rectal body temperature at 0.3 mg/kg, sc pretreated with compound for 45 mins followed by 8-OH-DPAT challenge and measured after 15 min by thermometer (reference value: -1.8 degreeC); format: functional, organism-based; conditions: time 60.0 min
Mus musculus [6] = assay: Inhibition of 8-OH-DPAT-induced hypothermia in Swiss albino mouse assessed as change in rectal body temperature at 0.3 mg/kg, sc pretreated with compound for 45 mins followed by 8-OH-DPAT challenge and measured after 30 min by thermometer (reference value: -1.7 degreeC); format: functional, organism-based; conditions: time 75.0 min

COc1ccccc1N1CCN(CCN(C(=O)C2CCCCC2)c2ccccn2)CC1 [WAY-100,635]
Activity [1]: 1.4
Activity [2]: 1.3
deltaT (Mus musculus [3]): -0.5 °C
deltaT (Mus musculus [4]): -0.2 °C
deltaT (Mus musculus [5]): -0.6 °C
deltaT (Mus musculus [6]): -0.8 °C
